Microsomal CLint and half-life data for 9 compounds are collected here from patent US20210087191A1, “SUBSTITUTED 3-ISOBUTYL-9,10-DIMETHOXY-1,3,4,6,7,11B-HEXAHYDRO-2H-PYRIDO[2,1-a]ISOQUINOLIN-2-OL COMPOUNDS, THEIR [sequence], AND USE THEREOF” (DISPERSOL TECHNOLOGIES, LLC, priority 2020, published 2021).

Where a name gives a salt, the structure may show the parent alone. Bounds are passed on as bounds.

Data set [1] in a line: Metabolic stability in human liver microsomes (LM), LC-MS/MS (first table). The following applies: for microsomal CLint: Table 1, read-out: Human LM CLint (μL/min/mg protein); for half-life: Table 1, read-out: Human LM t1/2. The data set is classed as in vitro ADME. The procedure:
(§1) Metabolism of compound(s) to release (+)-α-DTHBZ was determined by the half-life (t1/2) and intrinsic clearance (CIint) in human plasma (PS) and liver microsomes (LM) using tandem mass spectrometry (LC-MS/MS).

A short description of data set [2]: Stability in human plasma (PS), LC-MS/MS. The format is in vitro ADME. The following applies: read-out: Human PS t1/2. The procedure: as §1

As to `COc1cc2c(cc1OC)[C@H]1C[C@@H](OC(=O)/C=C/C(=O)N[C@H](C(=O)O)C(C)C)[C@H](CC(C)C)CN1CC2` [Example 11, (2S)-2-[(2E)-4-[[(2R,3R,11bR)-9,10-dimethoxy-3-(2-methylpropyl)-1H,2H,3H,4H,6H,7H,11bH-pyrido[2,1-a]isoquinolin-2-yl]oxy]-4-oxobut-2-enamido]-3-methylbutanoic acid], the microsomal CLint in data set [1] turned out to be 4.24 µL/min/mg. The results for the half-life in data set [1] and in data set [2] were 2.95 h and 0.225 h, respectively.

For the compound `COc1cc2c(cc1OC)[C@H]1C[C@@H](OC(=O)/C=C\C(=O)O)[C@H](CC(C)C)CN1CC2` [Example 4, (2Z)-4-[[(2R,3R,11bR)-9,10-dimethoxy-3-(2-methylpropyl)-1H,2H,3H,4H,6H,7H,11bH-pyrido[2,1-a]isoquinolin-2-yl]oxy]-4-oxobut-2-enoic acid], in data set [1], the microsomal CLint was less than 3.4 µL/min/mg and the half-life is greater than 3.39 h. Besides, the half-life in data set [2] worked out at 55 h.

Take `COc1cc2c(cc1OC)[C@H]1C[C@@H](OC(=O)NC(C)C)[C@H](CC(C)C)CN1CC2` [Example 22, (2R,3R,11bR)-9,10-dimethoxy-3-(2-methylpropyl)-1H,2H,3H,4H,6H,7H,11bH-pyrido[2,1-a]isoquinolin-2-yl N-isopropylcarbamate]: in data set [1], the microsomal CLint came to 5.15 µL/min/mg and the half-life is 2.31 h. Also, in data set [2], the half-life was greater than 65.5 h.

As to `CCNC(=O)O[C@@H]1C[C@@H]2c3cc(OC)c(OC)cc3CCN2C[C@H]1CC(C)C` [Example 21, (2R,3R,11bR)-9,10-dimethoxy-3-(2-methylpropyl)-1H,2H,3H,4H,6H,7H,11bH-pyrido[2,1-a]isoquinolin-2-yl N-ethylcarbamate], in data set [1], the microsomal CLint is 1.67 µL/min/mg and the half-life is 8.05 h. The half-life in data set [2] is greater than 341 h.

Regarding `COc1cc2c(cc1OC)[C@H]1C[C@@H](OC(=O)OCOC(=O)CC(C)C)[C@H](CC(C)C)CN1CC2` [Example 26, [([[(2R,3R,11bR)-9,10-dimethoxy-3-(2-methylpropyl)-1H,2H,3H,4H,6H,7H,11bH-pyrido[2,1-a]isoquinolin-2-yl]oxy]carbonyl)oxy]methyl 3-methylbutanoate], in data set [1], the microsomal CLint came to 1380 µL/min/mg and the half-life was determined as 0.00833 h. Also, in data set [2], the half-life is 1.39 h.

In the case of `COc1cc2c(cc1OC)[C@H]1C[C@@H](OC(=O)OCOC(=O)C(C)C)[C@H](CC(C)C)CN1CC2` [Example 25, [([[(2R,3R,11bR)-9,10-dimethoxy-3-(2-methylpropyl)-1H,2H,3H,4H,6H,7H,11bH-pyrido[2,1-a]isoquinolin-2-yl]oxy]carbonyl)oxy]methyl 2-methylpropanoate], the half-life in data set [2] amounted to 1.98 h.

Take `CCC(=O)OCOC(=O)O[C@@H]1C[C@@H]2c3cc(OC)c(OC)cc3CCN2C[C@H]1CC(C)C` [Example 24, [([[(2R,3R,11bR)-9,10-dimethoxy-3-(2-methylpropyl)-1H,2H,3H,4H,6H,7H,11bH-pyrido[2,1-a]isoquinolin-2-yl]oxy]carbonyl)oxy]methylpropanoate]: the half-life in data set [2] is 1.42 h.

Take `COc1cc2c(cc1OC)[C@H]1C[C@@H](OC(=O)/C=C\C(=O)O[C@@H]3C[C@@H]4c5cc(OC)c(OC)cc5CCN4C[C@H]3CC(C)C)[C@H](CC(C)C)CN1CC2` [Example 19, bis[(2R,3R,11bR)-9,10-dimethoxy-3-(2-methylpropyl)-1H,2H,3H,4H,6H,7H,11bH-pyrido[2,1-a]isoquinolin-2-yl] (2Z)-but-2-enedioate]: in data set [1], the microsomal CLint is 0.84 µL/min/mg and the half-life is greater than 13.7 h. Also, in data set [2], the half-life came to 134 h.

Consider `COc1cc2c(cc1OC)[C@H]1C[C@@H](OC(=O)C(=O)O[C@@H]3C[C@@H]4c5cc(OC)c(OC)cc5CCN4C[C@H]3CC(C)C)[C@H](CC(C)C)CN1CC2` [Example 20, Bis[(2R,3R,11bR)-9,10-dimethoxy-3-(2-methylpropyl)-1H,2H,3H,4H,6H,7H,11bH-pyrido[2,1-a]isoquinolin-2-yl] oxalate], for which, in data set [1], the microsomal CLint came to 3.83 µL/min/mg and the half-life is 3.2 h. Besides, the half-life in data set [2] amounted to 1.35 h.
